# Measured values as given in patent publication USRE34918E, “Azaazulene compounds which are useful as antiallergic and antiinflammatory agents” (Kaken Pharmaceutical Co., Ltd., priority 1988, dated 1995).
# Tests used:
# [1] = system: smooth musculus trachealis; assay: Relaxant activity of smooth musculus trachealis in guinea pig; parameters: species or system guinea pig (male Hartley); conditions: Cavia porcellus; tracheal chain strips, 37° C.; read-out: Concentration for 50% relaxation
# Procedure: Male Hartley guinea pigs weighing 350 to 550 g were bleed to death, and immediately the tracheae were extirpated. According to the method of Takagi et al [cf. Chem. Pharm. Bull., 8, 716 (1958)], tracheal chain strips was prepared, and the sample was suspended on Magnus apparatus under addition of load of 0.5 g. The test was carried out at 37° C. of liquid temperature. After position of tonus was examined with histamine (10^-6 g/ml) and isoproterenol (10^-7 g/ml), the test compound dissolved in a mixture of dimethyl sulfoxide and physiological saline was added thereto, and the test compound was investigated with respect to the effect on smooth musculus trachealis. Theophylline was used as a positive comparative drug. The relaxation and the contraction of smooth musculus trachealis were recorded on servocorder (SR 6342: commercially available from Watanabe Instruments Corp.) by connecting Isotonic Transducer (TD-1125: commercially available from Nihon Kohden Kogyo Co., Ltd.) to a balancing box.
# 5-lipoxygenase = biological target: T1, 5-lipoxygenase (Cavia porcellus, UniProt A0A286X958); assay: 5-lipoxygenase inhibiting activity in guinea pig; assay type: biochemical; conditions: read-out: Inhibition rate against 5-lipoxygenase activity
# T1 construct: 5-lipoxygenase was prepared with polymorphonuclear leukocyte obtained from peritoneal cavity; endogenous in cells; host or cells: guinea pig peritoneal polymorphonuclear leukocytes (casein-elicited)
# T1 sequence (A0A286X958 1-674): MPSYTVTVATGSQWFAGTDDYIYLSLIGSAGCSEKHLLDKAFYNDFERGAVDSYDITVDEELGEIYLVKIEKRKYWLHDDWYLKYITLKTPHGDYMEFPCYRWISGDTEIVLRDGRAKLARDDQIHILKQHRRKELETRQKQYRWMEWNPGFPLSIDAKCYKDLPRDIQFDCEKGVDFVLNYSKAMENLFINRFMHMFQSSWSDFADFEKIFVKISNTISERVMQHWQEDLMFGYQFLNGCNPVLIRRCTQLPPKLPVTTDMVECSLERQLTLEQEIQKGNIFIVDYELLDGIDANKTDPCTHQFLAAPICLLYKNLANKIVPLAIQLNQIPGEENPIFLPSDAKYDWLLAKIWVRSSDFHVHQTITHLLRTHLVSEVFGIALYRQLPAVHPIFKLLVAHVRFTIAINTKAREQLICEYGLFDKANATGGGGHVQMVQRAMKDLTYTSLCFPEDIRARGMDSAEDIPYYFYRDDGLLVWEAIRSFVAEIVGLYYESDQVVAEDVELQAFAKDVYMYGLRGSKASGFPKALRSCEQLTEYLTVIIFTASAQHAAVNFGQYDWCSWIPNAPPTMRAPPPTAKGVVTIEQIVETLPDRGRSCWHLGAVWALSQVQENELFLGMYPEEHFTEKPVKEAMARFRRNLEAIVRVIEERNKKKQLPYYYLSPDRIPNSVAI
smiles,measurement,setting,value
"CC(C)c1cccc2n(Cc3ccc(F)cc3)c(=O)c(-c3nnn[nH]3)c-2c1 [Example 9, 1-(4-Fluorobenzyl)-5-iso-propyl-3-(5-tetrazolyl)-1-azaazulane-2-one]",EC50,[1],8.6 µg/mL
same,inhibition at 10 µM,5-lipoxygenase,-5.4%
